Experimental data reported in US20250326767A1, “NOVEL BENZOTHIAZOLE DERIVATIVES” (CARNA BIOSCIENCES, INC., priority 2021, published 2025).
pIC50: −log10 of the molar value.

Columns and labels:
Assay in all cases: Inhibition test on activity of DYRK family, mobility shift assay (MSA)
Type in all cases: biochemical
[1] = biological target: T1, DYRK1A (Homo sapiens, UniProt Q13627); conditions: ATP 100 μM; FITC-labeled DYRKtide peptide substrate; room temperature 1 hour; read-out: Inhibitory Activity DYRK1A (IC50 class)
T1 construct: purchased Carna Biosciences, Inc. 04-130
Description: (§1) The kinase activity was measured by mobility shift assay (MSA) method using QuickScout Screening Assist™ MSA (commercially available kit manufactured by Carna Biosciences, Inc.). The substrate of the kinase reaction used was an FITC-labeled DYRKtide peptide included in the kit. An assay buffer [20 mM HEPES, 0.01% Triton X-100™, 2 mM dithiothreitol, pH 7.5] was used to create a substrate mixture solution with a substrate (4 μM), MgCl2 (20 mM), and ATP (DYRK1A: 100 μM; DYRKIB: 200 μM; DYRK2:40 μM; and DYRK3:20 μM). In addition, kinases (DYRK1A: manufactured by Carna Biosciences, Inc., Cat. No. 04-130; DYRK1B: manufactured by Carna Biosciences, Inc., Cat. No. 04-131; DYRK2; manufactured by Carna Biosciences, Inc., Cat. No. 04-132; and DYRK3; manufactured by Carna Biosciences, Inc., Cat. No. 04-133) were diluted with the assay buffer to prepare enzyme solutions (DYRK1A: 0.2 ng/μL; DYRK1B: 0.08 ng/μL; DYRK2: 0.04 ng/μL; and DYRK3:0.25 ng/μL). The 10 mM solution of the test compound in DMSO was further diluted with DMSO to 10 levels of the concentration (0.00003 mM, 0.0001 mM, 0.0003 mM, 0.001 mM, 0.003 mM, 0.01 mM, 0.03 mM, 0.1 mM, 0.3 mM, and 1 mM), each of which was subjected to 25-fold dilution with the assay buffer to obtain a drug solution (4% DMSO solution). 5 μL of the drug solution or a control solution (4% DMSO-assay buffer), 5 μL of the substrate mixture solution, and 10 μL of the enzyme solution were mixed in the wells of a polypropylene 384-well plate and allowed to react at room temperature for 1 hour, and then the reaction was quenched by adding 60 μL of the termination buffer included in the kit. Subsequently, the quantities of the substrates(S) and the phosphorylated substrate (P) in the reaction solution were measured using LabChip EZ Reader II system (manufactured by Caliper Life Sciences) according to the protocol of the assay kit.
(§2) The heights of the peaks of the “substrate” and the “phosphorylated substrate” were expressed as S and P, respectively, and a blank containing the assay buffer instead of the enzyme solution was also measured.
(§3) The inhibition rate (%) of the test compound was calculated according to the following equation: […]
(§4) wherein, A, B, and C represent P/(P+S) of the blank well, P/(P+S) of the control solution well, and P/(P+S) of the compound-containing well, respectively.
(§5) The IC50 value was calculated via a regression analysis of the inhibition rate and the test compound concentration (logarithmic value).

[2] = biological target: T2, DYRK1B (Homo sapiens, UniProt Q9Y463); conditions: ATP 200 μM; FITC-labeled DYRKtide peptide substrate; room temperature 1 hour; read-out: Inhibitory Activity DYRK1B (IC50 class)
T2 construct: purchased Carna Biosciences, Inc. 04-131
T2 sequence (Q9Y463 whole entry): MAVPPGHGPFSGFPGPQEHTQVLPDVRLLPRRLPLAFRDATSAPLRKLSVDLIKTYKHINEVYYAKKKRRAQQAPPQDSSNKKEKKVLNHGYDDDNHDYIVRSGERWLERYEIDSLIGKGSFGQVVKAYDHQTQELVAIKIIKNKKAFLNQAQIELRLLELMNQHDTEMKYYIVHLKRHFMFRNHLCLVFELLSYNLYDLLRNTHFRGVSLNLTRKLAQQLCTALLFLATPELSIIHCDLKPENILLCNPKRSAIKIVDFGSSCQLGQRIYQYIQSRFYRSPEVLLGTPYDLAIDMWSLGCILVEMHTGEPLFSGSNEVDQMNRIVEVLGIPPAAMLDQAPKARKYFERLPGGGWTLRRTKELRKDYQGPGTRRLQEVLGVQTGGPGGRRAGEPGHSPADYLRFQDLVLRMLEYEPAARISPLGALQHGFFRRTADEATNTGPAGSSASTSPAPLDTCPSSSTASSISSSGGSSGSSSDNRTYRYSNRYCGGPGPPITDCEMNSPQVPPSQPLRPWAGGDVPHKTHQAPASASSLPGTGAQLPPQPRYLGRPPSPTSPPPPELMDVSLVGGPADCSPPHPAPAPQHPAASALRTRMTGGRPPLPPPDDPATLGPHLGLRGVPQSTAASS
Description: as §1, §2, §3, §4, §5

[3] = biological target: T3, DYRK2 (Homo sapiens, UniProt Q92630); conditions: ATP 40 μM; FITC-labeled DYRKtide peptide substrate; room temperature 1 hour; read-out: Inhibitory Activity DYRK2 (IC50 class)
T3 construct: purchased Carna Biosciences, Inc. 04-132
T3 sequence (Q92630 1-601): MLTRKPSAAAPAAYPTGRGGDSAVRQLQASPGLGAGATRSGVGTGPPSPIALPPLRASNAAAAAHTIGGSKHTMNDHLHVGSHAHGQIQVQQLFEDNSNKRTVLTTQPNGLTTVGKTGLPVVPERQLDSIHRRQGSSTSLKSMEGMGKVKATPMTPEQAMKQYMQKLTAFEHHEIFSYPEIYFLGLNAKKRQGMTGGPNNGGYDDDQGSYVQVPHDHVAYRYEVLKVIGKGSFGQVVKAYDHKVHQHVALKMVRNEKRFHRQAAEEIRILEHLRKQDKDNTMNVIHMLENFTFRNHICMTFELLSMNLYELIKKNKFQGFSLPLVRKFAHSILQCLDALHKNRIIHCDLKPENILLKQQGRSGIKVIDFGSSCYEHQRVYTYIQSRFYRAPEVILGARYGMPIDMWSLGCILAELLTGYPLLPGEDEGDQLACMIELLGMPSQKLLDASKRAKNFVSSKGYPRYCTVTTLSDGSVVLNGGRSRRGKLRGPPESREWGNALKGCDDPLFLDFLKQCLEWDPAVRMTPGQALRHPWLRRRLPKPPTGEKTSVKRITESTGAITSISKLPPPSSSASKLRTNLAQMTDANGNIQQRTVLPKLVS
Description: as §1, §2, §3, §4, §5

[4] = biological target: T4, DYRK3 (Homo sapiens, UniProt O43781); conditions: ATP 20 μM; FITC-labeled DYRKtide peptide substrate; room temperature 1 hour; read-out: Inhibitory Activity DYRK3 (IC50 class)
T4 construct: purchased Carna Biosciences, Inc. 04-133
T4 sequence (O43781 1-588): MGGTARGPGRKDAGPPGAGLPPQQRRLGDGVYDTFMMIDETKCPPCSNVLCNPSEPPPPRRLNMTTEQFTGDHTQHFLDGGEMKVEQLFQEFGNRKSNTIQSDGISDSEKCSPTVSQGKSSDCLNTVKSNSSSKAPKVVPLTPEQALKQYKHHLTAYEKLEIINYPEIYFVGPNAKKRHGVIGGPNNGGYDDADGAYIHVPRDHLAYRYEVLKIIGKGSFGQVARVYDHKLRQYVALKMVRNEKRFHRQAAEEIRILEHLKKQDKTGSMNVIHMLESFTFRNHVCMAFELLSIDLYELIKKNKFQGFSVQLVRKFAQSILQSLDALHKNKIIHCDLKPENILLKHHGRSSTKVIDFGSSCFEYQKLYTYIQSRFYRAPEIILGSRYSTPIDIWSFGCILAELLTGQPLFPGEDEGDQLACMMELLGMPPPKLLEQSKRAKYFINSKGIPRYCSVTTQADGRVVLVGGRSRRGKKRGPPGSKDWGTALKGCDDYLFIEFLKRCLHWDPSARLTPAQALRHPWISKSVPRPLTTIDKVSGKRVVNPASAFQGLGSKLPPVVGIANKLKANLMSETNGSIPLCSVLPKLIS
Description: as §1, §2, §3, §4, §5

CC#CC1CCNC(=O)N1c1nc2c3c(ccc2s1)OCCO3 (single isomer, unassigned) [Example 5, 1-(7,8-dihydro-[1,4]dioxyno[2′,3′:5,6]benzo[1,2-d]thiazol-2-yl)-6-(prop-1-yn-1-yl)tetrahydropyrimidin-2(1H)-one]
pIC50 [1]: > 8.00 | pIC50 [2]: > 8.00 | pIC50 [3]: 6.00 to 7.00 | pIC50 [4]: 6.00 to 7.00

CC#C[C@H]1[C@H](C)CNC(=O)N1c1nc2c3c(ccc2s1)OCC3 (stereo in doubt) [Example 13, (5R*,6R*)-1-(7,8-dihydrobenzofuro[4,5-d]thiazol-2-yl)-5-methyl-6-(prop-1-yn-1-yl)tetrahydropyrimidin-2(1H)-one]
pIC50 [2]: < 6.00 | pIC50 [3]: < 6.00 | pIC50 [4]: < 6.00

CC#CC1C[C@H](C)NC(=O)N1c1nc2c3c(ccc2s1)OCC3 (stereo in doubt) [Example 16, (4S,6S)-1-(7,8-dihydrobenzofuro[4,5-d]thiazol-2-yl)-4-methyl-6-(prop-1-yn-1-yl)tetrahydropyrimidin-2(1H)-one]
pIC50 [1]: < 6.00 | pIC50 [2]: < 6.00 | pIC50 [3]: < 6.00 | pIC50 [4]: < 6.00

CC#CC1C[C@H](C)NC(=O)N1c1nc2c3c(ccc2s1)OCC3 (stereo in doubt) [Example 17, (4S,6R)-1-(7,8-dihydrobenzofuro[4,5-d]thiazol-2-yl)-4-methyl-6-(prop-1-yn-1-yl)tetrahydropyrimidin-2(1H)-one]
pIC50 [1]: 7.00 to 8.00 | pIC50 [2]: 7.00 to 8.00 | pIC50 [3]: < 6.00 | pIC50 [4]: < 6.00

CC#C[C@H]1C[C@@H](C)NC(=O)N1c1nc2c3c(ccc2s1)OCC3 [Example 14, (4R,6R)-1-(7,8-dihydrobenzofuro[4,5-d]thiazol-2-yl)-4-methyl-6-(prop-1-yn-1-yl)tetrahydropyrimidin-2(1H)-one]
pIC50 [1]: < 6.00 | pIC50 [2]: < 6.00 | pIC50 [3]: < 6.00 | pIC50 [4]: < 6.00

CC#C[C@@H]1C[C@@H](C)NC(=O)N1c1nc2c3c(ccc2s1)OCC3 [Example 15, (4R,6S)-1-(7,8-dihydrobenzofuro[4,5-d]thiazol-2-yl)-4-methyl-6-(prop-1-yn-1-yl)tetrahydropyrimidin-2(1H)-one]
pIC50 [1]: 7.00 to 8.00 | pIC50 [2]: 7.00 to 8.00 | pIC50 [3]: < 6.00 | pIC50 [4]: < 6.00
